{"source": "ChEMBL document CHEMBL5223073", "about": "“Andrographolide suppresses cisplatin-induced endothelial hyperpermeability through activation of PI3K/Akt and eNOS -derived nitric oxide” (Bioorg Med Chem, 2020)", "key": {"HUVEC [1]": {"tested_on": "HUVEC", "test": "Improvement in cisplatin-induced endothelial monolayer integrity in HUVEC cells assessed as increase in transendothelial electric resistance at 30 uM preincubated with compound followed by cisplatin stimulation and measured after 45 mins", "assay_type": "functional, cell-based", "settings": "Homo sapiens"}, "HUVEC [2]": {"tested_on": "HUVEC", "test": "Inhibition of cisplatin-induced store operated Ca2+ release in HUVEC cells at 30 uM preincubated with compound in presence of PI3K inhibitor, wortmannin followed by cisplatin stimulation by Fura-2 AM staining based calcium influx assay", "assay_type": "functional, cell-based", "settings": "Homo sapiens"}, "HUVEC [3]": {"tested_on": "HUVEC", "test": "Effect on total eNOS protein level in cisplatin-treated HUVEC cells at 30 uM measured after 5 to 240 mins by Western blot analysis", "assay_type": "functional, cell-based", "settings": "Homo sapiens, time 5-240 min"}, "[4]": {"biological_target": "Transcription factor p65 (Homo sapiens) (UniProt Q04206)", "sequence (Q04206 whole entry)": "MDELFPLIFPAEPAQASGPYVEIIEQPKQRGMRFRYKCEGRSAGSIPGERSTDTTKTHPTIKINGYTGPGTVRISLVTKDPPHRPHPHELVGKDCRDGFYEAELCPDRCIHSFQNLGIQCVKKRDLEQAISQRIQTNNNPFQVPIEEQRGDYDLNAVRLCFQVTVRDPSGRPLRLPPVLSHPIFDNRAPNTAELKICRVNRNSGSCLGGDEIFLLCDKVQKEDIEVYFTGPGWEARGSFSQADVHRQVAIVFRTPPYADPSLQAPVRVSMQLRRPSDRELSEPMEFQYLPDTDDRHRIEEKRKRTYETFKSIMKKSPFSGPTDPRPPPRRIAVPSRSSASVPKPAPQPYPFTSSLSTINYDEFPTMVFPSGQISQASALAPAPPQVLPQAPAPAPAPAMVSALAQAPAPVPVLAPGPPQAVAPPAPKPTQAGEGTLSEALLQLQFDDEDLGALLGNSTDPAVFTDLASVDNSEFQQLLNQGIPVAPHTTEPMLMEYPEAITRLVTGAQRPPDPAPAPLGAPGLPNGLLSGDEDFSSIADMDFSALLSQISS", "test": "Inhibition of cisplatin-induced phosphorylation of p65 subunit at Ser536 residue in HUVEC cells at 30 uM preincubated with PI3K inhibitor, wortmannin followed by compound addition and further incubated for 1 hr by Western blot analysis", "assay_type": "cell-based"}, "HUVEC [5]": {"tested_on": "HUVEC", "test": "Activation of AKT in cisplatin-treated HUVEC cells assessed as increase in AKT phosphorylation at 30 uM measured after 5 to 240 mins by Western blot analysis", "assay_type": "cell-based", "settings": "Homo sapiens, filed as activator, time 5-240 min"}, "HUVEC [6]": {"tested_on": "HUVEC", "test": "Inhibition of cisplatin-induced TRPC1 phosphorylation in [32P] orthophosphate labeled HUVEC cells at 30 uM incubated for 15 mins in presence of cisplatin and PI3K inhibitor, wortmannin by Western blot analysis", "assay_type": "cell-based", "settings": "Homo sapiens"}, "HUVEC [7]": {"tested_on": "HUVEC", "test": "Upregulation of cytosolic p65 level in cisplatin-treated HUVEC cells at 30 uM preincubated with PI3K inhibitor, wortmannin followed by compound addition and further incubated for 1 hr by Western blot analysis", "assay_type": "functional, cell-based", "settings": "Homo sapiens"}, "HUVEC [8]": {"tested_on": "HUVEC", "test": "Inhibition of cisplatin-induced PKCalpha translocation in HUVEC cells assessed as increase in PKCalpha accumulation in cytosol at 30 uM incubated for 15 mins in presence of cisplatin by Western blot analysis", "assay_type": "functional, subcellular", "settings": "Homo sapiens"}, "HUVEC [9]": {"tested_on": "HUVEC", "test": "Activation of AKT in cisplatin-treated HUVEC cells assessed as increase in AKT phosphorylation at 30 uM pretreated with PI3K inhibitor, wortmannin followed by compound addition and measured after 240 mins by Western blot analysis", "assay_type": "cell-based", "settings": "Homo sapiens"}, "HUVEC [10]": {"tested_on": "HUVEC", "test": "Inhibition of cisplatin-induced TRPC1 phosphorylation in [32P] orthophosphate labeled HUVEC cells at 30 uM incubated for 15 mins in presence of cisplatin and eNOS inhibitor, N(G)-nitro-L-arginine methyl ester by Western blot analysis", "assay_type": "cell-based", "settings": "Homo sapiens"}, "HUVEC [11]": {"tested_on": "HUVEC", "test": "Downregulation of cisplatin-induced ICAM1 protein expression in HUVEC cells at 30 uM preincubated with eNOS inhibitor, N(G)-nitro-L-arginine methyl ester followed by compound addition and further incubated for 1 hr by Western blot analysis", "assay_type": "functional, cell-based", "settings": "Homo sapiens"}, "[12]": {"biological_target": "T1, Nitric oxide synthase 3 (Homo sapiens) (UniProt P29474)", "T1 sequence (whole entry)": "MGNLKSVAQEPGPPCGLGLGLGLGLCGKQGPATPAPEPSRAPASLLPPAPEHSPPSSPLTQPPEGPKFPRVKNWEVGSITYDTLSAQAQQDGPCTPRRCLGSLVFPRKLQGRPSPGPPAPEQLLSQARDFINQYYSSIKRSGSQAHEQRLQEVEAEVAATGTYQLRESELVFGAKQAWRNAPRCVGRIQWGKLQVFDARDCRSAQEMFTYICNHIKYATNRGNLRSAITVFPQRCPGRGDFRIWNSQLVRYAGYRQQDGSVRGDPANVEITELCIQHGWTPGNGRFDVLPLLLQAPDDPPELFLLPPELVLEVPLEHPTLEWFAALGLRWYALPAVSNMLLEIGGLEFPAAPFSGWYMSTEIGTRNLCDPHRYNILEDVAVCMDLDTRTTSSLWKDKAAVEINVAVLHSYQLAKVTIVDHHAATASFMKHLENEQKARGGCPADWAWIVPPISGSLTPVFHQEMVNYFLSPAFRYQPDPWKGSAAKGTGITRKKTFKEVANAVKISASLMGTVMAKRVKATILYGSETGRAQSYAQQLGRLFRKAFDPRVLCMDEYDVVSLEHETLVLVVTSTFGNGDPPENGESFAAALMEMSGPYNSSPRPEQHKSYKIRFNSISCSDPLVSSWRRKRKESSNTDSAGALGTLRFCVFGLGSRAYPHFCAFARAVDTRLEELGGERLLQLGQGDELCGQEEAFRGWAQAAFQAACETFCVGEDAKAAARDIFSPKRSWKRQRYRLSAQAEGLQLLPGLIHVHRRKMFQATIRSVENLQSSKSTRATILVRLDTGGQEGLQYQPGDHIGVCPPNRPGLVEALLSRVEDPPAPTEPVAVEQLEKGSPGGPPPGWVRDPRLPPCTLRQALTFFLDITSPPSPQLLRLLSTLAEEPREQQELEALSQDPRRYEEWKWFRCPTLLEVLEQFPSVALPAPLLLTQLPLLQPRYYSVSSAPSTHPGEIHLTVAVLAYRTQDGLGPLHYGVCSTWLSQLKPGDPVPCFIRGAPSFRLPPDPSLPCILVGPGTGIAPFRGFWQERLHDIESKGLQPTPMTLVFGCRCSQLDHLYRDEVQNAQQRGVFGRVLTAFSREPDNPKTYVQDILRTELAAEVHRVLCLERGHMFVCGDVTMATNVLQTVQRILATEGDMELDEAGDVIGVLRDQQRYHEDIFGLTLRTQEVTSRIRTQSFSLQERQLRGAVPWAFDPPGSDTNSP", "test": "Activation of eNOS activity in cisplatin-treated HUVEC cells assessed as increase in eNOS phosphorylation at Ser1177 residue at 30 uM preincubated with PI3K inhibitor, wortmannin followed by compound addition measured after 5 to 240 mins by Western blot analysis", "assay_type": "cell-based", "settings": "time 5-240 min"}, "HUVEC [13]": {"tested_on": "HUVEC", "test": "Downregulation of cisplatin-induced ICAM1 protein expression in HUVEC cells at 100 uM incubated for 1 hr by Western blot analysis", "assay_type": "functional, cell-based", "settings": "Homo sapiens"}, "HUVEC [14]": {"tested_on": "HUVEC", "test": "Improvement in cisplatin-induced endothelial monolayer integrity in HUVEC cells assessed as reduction in transmembrane movement of albumin at 30 uM preincubated with compound in presence of PI3K inhibitor, wortmannin followed by cisplatin stimulation and measured after 2 hrs", "assay_type": "functional, cell-based", "settings": "Homo sapiens"}, "HUVEC [15]": {"tested_on": "HUVEC", "test": "Induction of NO production in cisplatin-treated HUVEC cells assessed as increase in fluorescence signal at 30 uM preincubated with eNOS inhibitor, N(G)-nitro-L-arginine methyl ester for 3 hrs followed by compound addition and measured immediately by DAF-FM dye based analysis", "assay_type": "functional, cell-based", "settings": "Homo sapiens"}, "HUVEC [16]": {"tested_on": "HUVEC", "test": "Inhibition of cisplatin-induced PKCalpha translocation in HUVEC cells assessed as reduction in membrane PKCalpha activity at 30 uM incubated for 15 mins in presence of cisplatin by Western blot analysis", "assay_type": "functional, cell-based", "settings": "Homo sapiens"}, "HUVEC [17]": {"tested_on": "HUVEC", "test": "Cytotoxicity against HUVEC cells assessed as reduction in cell viability at <=30 uM measured after 24 hrs by MTT assay", "assay_type": "toxicity, cell-based", "settings": "human"}, "[18]": {"biological_target": "T1, Nitric oxide synthase 3 (Homo sapiens)", "test": "Activation of eNOS activity in cisplatin-treated HUVEC cells assessed as increase in eNOS phosphorylation at Ser1177 residue at 30 uM preincubated with eNOS inhibitor, N(G)-nitro-L-arginine methyl ester followed by compound addition measured after 5 to 240 mins by Western blot analysis", "assay_type": "cell-based", "settings": "time 5-240 min"}}, "note": "The source made the active and inactive calls. No cut-off for these calls is given here.", "data": [{"smiles": "C=C1CC[C@@H]2[C@](C)(CO)[C@H](O)CC[C@@]2(C)[C@@H]1C/C=C1/C(=O)OC[C@H]1O", "note": "[ANDROGRAPHOLIDE]", "values": [{"measurement": "Activity", "setting": "HUVEC [1]", "value": "Active"}, {"measurement": "inhibition", "setting": "HUVEC [2]", "value": "inactive"}, {"measurement": "Activity", "setting": "HUVEC [3]", "value": "inactive"}, {"measurement": "inhibition", "setting": "[4]", "value": "inactive"}, {"measurement": "Activity", "setting": "HUVEC [5]", "value": "Active"}, {"measurement": "inhibition", "setting": "HUVEC [6]", "value": "inactive"}, {"measurement": "Activity", "setting": "HUVEC [7]", "value": "inactive"}, {"measurement": "inhibition", "setting": "HUVEC [8]", "value": "Active"}, {"measurement": "Activity", "setting": "HUVEC [9]", "value": "inactive"}, {"measurement": "inhibition", "setting": "HUVEC [10]", "value": "inactive"}, {"measurement": "Activity", "setting": "HUVEC [11]", "value": "inactive"}, {"measurement": "Activity", "setting": "[12]", "value": "inactive"}, {"measurement": "Activity", "setting": "HUVEC [13]", "value": "Active"}, {"measurement": "Activity", "setting": "HUVEC [14]", "value": "inactive"}, {"measurement": "Activity", "setting": "HUVEC [15]", "value": "inactive"}, {"measurement": "inhibition", "setting": "HUVEC [16]", "value": "Active"}, {"measurement": "Activity", "setting": "HUVEC [17]", "value": "Non-Toxic"}, {"measurement": "Activity", "setting": "[18]", "value": "inactive"}]}]}
